SMILES strings stand for the structures.

This experiment has as its target T1, Vitamin D3 receptor (Homo sapiens) (UniProt P11473).
T1 sequence (whole entry): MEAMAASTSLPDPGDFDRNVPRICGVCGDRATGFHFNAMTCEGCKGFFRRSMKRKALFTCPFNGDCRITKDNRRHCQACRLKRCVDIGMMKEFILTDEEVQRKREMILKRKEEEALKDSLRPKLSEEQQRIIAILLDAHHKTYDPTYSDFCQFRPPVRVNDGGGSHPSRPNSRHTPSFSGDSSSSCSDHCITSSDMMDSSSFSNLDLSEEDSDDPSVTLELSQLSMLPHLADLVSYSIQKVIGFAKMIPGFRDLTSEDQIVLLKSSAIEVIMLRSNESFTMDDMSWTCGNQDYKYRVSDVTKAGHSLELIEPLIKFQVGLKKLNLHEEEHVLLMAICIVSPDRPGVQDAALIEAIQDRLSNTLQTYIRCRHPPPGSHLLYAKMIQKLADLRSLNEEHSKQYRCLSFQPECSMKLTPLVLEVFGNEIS
Kind of experiment: Antagonist activity against 1-alpha,25-dihydroxy vitamin D3-induced HL60 cell differentiation by NBT reduction method relative to TEI-9647. It is filed as functional, cell-based. More on the design: scale not given: the % may be the effect or the level left. The note with it: HL-60.
Compound `C=C1/C(=C\C=C2/CCC[C@]3(C)[C@@H]([C@H](C)C[C@H]4OC(=O)C(=C)C4(C)C)CC[C@@H]23)C[C@@H](O)C[C@@H]1O` showed an Activity of 16%.
`C=C1C(=O)O[C@H](C[C@@H](C)[C@H]2CC[C@H]3/C(=C/C=C4/C[C@@H](O)C[C@H](O)C4=C)CCC[C@]23C)[C@@H]1CCCC` had an Activity of 17%.
For `C=C1/C(=C\C=C2/CCC[C@]3(C)[C@@H]([C@H](C)C[C@H]4OC(=O)C(=C)[C@H]4CCC)CC[C@@H]23)C[C@@H](O)[C@H](OCCCO)[C@@H]1O` the value was 97%; for `C=C1/C(=C\C=C2/CCC[C@]3(C)[C@@H]([C@H](C)C[C@@H]4OC(=O)C(=C)[C@@H]4C)CC[C@@H]23)C[C@@H](O)[C@H](CCCO)[C@@H]1O`, 517%; for `C=C1/C(=C\C=C2/CCC[C@]3(C)[C@@H]([C@H](C)C[C@@H]4OC(=O)C(=C)[C@H]4CCC)CC[C@@H]23)C[C@@H](O)[C@H](OCCCO)[C@@H]1O`, 12100%.
The value for `C=C1C(=O)O[C@H](C[C@@H](C)[C@H]2CC[C@H]3/C(=C/C=C4/C[C@@H](O)[C@H](CCCO)[C@H](O)C4=C)CCC[C@]23C)[C@@H]1C` was 30%; that for `C=C1/C(=C\C=C2/CCC[C@]3(C)[C@@H]([C@H](C)C[C@H]4OC(=O)C(=C)[C@@H]4C)CC[C@@H]23)C[C@@H](O)[C@H](C)[C@@H]1O` was 85%; that for `C=C1/C(=C\C=C2/CCC[C@]3(C)[C@@H]([C@H](C)C[C@H]4OC(=O)C(=C)[C@@H]4C)CC[C@@H]23)C[C@@H](O)C[C@@H]1O` was 7%.
Consider `C=C1/C(=C\C=C2/CCC[C@]3(C)[C@@H]([C@H](C)C[C@@H]4OC(=O)C(=C)[C@H]4CCCC)CC[C@@H]23)C[C@@H](O)[C@H](OCCCO)[C@@H]1O`, for which the Activity is 205%.
The value for `C=C1C[C@@H](C[C@@H](C)[C@H]2CC[C@H]3/C(=C/C=C4/C[C@@H](O)[C@H](C)[C@H](O)C4=C)CCC[C@]23C)OC1=O` was 38%; that for `C=C1/C(=C\C=C2/CCC[C@]3(C)[C@@H]([C@H](C)C[C@H]4OC(=O)C(=C)[C@@H]4CC)CC[C@@H]23)C[C@@H](O)[C@H](C)[C@@H]1O` was 18%.
For `C=C1/C(=C\C=C2/CCC[C@]3(C)[C@@H]([C@H](C)C[C@H]4OC(=O)C(=C)[C@H]4CCCC)CC[C@@H]23)C[C@@H](O)[C@H](C)[C@@H]1O` the value was 102%; for `C=C1/C(=C\C=C2/CCC[C@]3(C)[C@@H]([C@H](C)C[C@H]4OC(=O)C(=C)[C@@H]4CC)CC[C@@H]23)C[C@@H](O)[C@H](OCCCO)[C@@H]1O`, 25%.
For `C=C1/C(=C\C=C2/CCC[C@]3(C)[C@@H]([C@H](C)C[C@H]4OC(=O)C(=C)[C@H]4CC(C)C)CC[C@@H]23)C[C@@H](O)[C@H](OCCCO)[C@@H]1O` the value was 25%.
For `C=C1/C(=C\C=C2/CCC[C@]3(C)[C@@H]([C@H](C)C[C@@H]4OC(=O)C(=C)C4(C)C)CC[C@@H]23)C[C@@H](O)C[C@@H]1O`, the Activity stood at 1170%.
For `C=C1/C(=C\C=C2/CCC[C@]3(C)[C@@H]([C@H](C)C[C@H]4OC(=O)C(=C)[C@@H]4CC(C)C)CC[C@@H]23)C[C@@H](O)C[C@@H]1O` the value was 5%; for `C=C1C(=O)O[C@@H](C[C@@H](C)[C@H]2CC[C@H]3/C(=C/C=C4/C[C@@H](O)C[C@H](O)C4=C)CCC[C@]23C)[C@@H]1CC(C)C`, 40%.
For the compound `C=C1/C(=C\C=C2/CCC[C@]3(C)[C@@H]([C@H](C)C[C@H]4OC(=O)C(=C)[C@@H]4CCC)CC[C@@H]23)C[C@@H](O)[C@H](OCCCO)[C@@H]1O`, the Activity was determined as 124%.
In the case of `C=C1/C(=C\C=C2/CCC[C@]3(C)[C@@H]([C@H](C)C[C@H]4OC(=O)C(=C)[C@@H]4CCC)CC[C@@H]23)C[C@@H](O)[C@H](CCCO)[C@@H]1O`, the Activity amounted to 573%.
For `C=C1/C(=C\C=C2/CCC[C@]3(C)[C@@H]([C@H](C)C[C@@H]4OC(=O)C(=C)[C@H]4CC)CC[C@@H]23)C[C@@H](O)[C@H](OCCCO)[C@@H]1O` the value was 158%; for `C=C1/C(=C\C=C2/CCC[C@]3(C)[C@@H]([C@H](C)C[C@H]4OC(=O)C(=C)C45CC5)CC[C@@H]23)C[C@@H](O)C[C@@H]1O`, below 0.3%.
For `C=C1/C(=C\C=C2/CCC[C@]3(C)[C@@H]([C@H](C)C[C@H]4OC(=O)C(=C)[C@H]4CCC)CC[C@@H]23)C[C@@H](O)[C@H](C)[C@@H]1O` the value was 170%.
For `C=C1/C(=C\C=C2/CCC[C@]3(C)[C@@H]([C@H](C)C[C@@H]4OC(=O)C(=C)[C@@H]4CCC)CC[C@@H]23)C[C@@H](O)[C@H](OCCCO)[C@@H]1O` the value was 85100%.
`C=C1/C(=C\C=C2/CCC[C@]3(C)[C@@H]([C@H](C)C[C@H]4OC(=O)C(=C)[C@@H]4CCCC)CC[C@@H]23)C[C@@H](O)[C@H](OCCCO)[C@@H]1O` had an Activity of 88%.
For `C=C1C[C@H](C[C@@H](C)[C@H]2CC[C@H]3/C(=C/C=C4/C[C@@H](O)[C@H](CCCO)[C@H](O)C4=C)CCC[C@]23C)OC1=O` the value was 2990%.
`C=C1/C(=C\C=C2/CCC[C@]3(C)[C@@H]([C@H](C)C[C@@H]4OC(=O)C(=C)[C@@H]4C)CC[C@@H]23)C[C@@H](O)C[C@@H]1O`: the Activity worked out at 220%.
In turn, `C=C1/C(=C\C=C2/CCC[C@]3(C)[C@@H]([C@H](C)C[C@H]4OC(=O)C(=C)[C@@H]4CC)CC[C@@H]23)C[C@@H](O)C[C@@H]1O` registered an Activity of 6%.
The value for `C=C1/C(=C\C=C2/CCC[C@]3(C)[C@@H]([C@H](C)C[C@H]4OC(=O)C(=C)[C@H]4CCCC)CC[C@@H]23)C[C@@H](O)[C@H](OCCCO)[C@@H]1O` was 37%.
As to `C=C1/C(=C\C=C2/CCC[C@]3(C)[C@@H]([C@H](C)C[C@@H]4OC(=O)C(=C)C45CC5)CC[C@@H]23)C[C@@H](O)C[C@@H]1O`, the Activity was determined as 284%.
For `C=C1/C(=C\C=C2/CCC[C@]3(C)[C@@H]([C@H](C)C[C@H]4OC(=O)C(=C)[C@@H]4C)CC[C@@H]23)C[C@@H](O)[C@H](OCCCO)[C@@H]1O` the value was 12%; for `C=C1C[C@H](C[C@@H](C)[C@H]2CC[C@H]3/C(=C/C=C4/C[C@@H](O)[C@H](OCCCO)[C@H](O)C4=C)CCC[C@]23C)OC1=O`, 1160%; for `C=C1/C(=C\C=C2/CCC[C@]3(C)[C@@H]([C@H](C)C[C@H]4OC(=O)C(=C)[C@H]4CC(C)C)CC[C@@H]23)C[C@@H](O)[C@H](C)[C@@H]1O`, 50%.
`C=C1/C(=C\C=C2/CCC[C@]3(C)[C@@H]([C@H](C)C[C@H]4OC(=O)C(=C)[C@@H]4CCC)CC[C@@H]23)C[C@@H](O)C[C@@H]1O` displayed an Activity of 8%.
For `C=C1C(=O)O[C@@H](C[C@@H](C)[C@H]2CC[C@H]3/C(=C/C=C4/C[C@@H](O)C[C@H](O)C4=C)CCC[C@]23C)[C@@H]1CCCC` the value was 58%; for `C=C1C(=O)O[C@H](C[C@@H](C)[C@H]2CC[C@H]3/C(=C/C=C4/C[C@@H](O)C[C@H](O)C4=C)CCC[C@]23C)[C@@H]1CCC`, 38%.
The value for `C=C1/C(=C\C=C2/CCC[C@]3(C)[C@@H]([C@H](C)C[C@H]4OC(=O)C(=C)[C@H]4CC)CC[C@@H]23)C[C@@H](O)[C@H](CCCO)[C@@H]1O` was 18%.
For `C=C1/C(=C\C=C2/CCC[C@]3(C)[C@@H]([C@H](C)C[C@@H]4OC(=O)C(=C)[C@H]4CC(C)C)CC[C@@H]23)C[C@@H](O)[C@H](OCCCO)[C@@H]1O` the value was 291%; for `C=C1/C(=C\C=C2/CCC[C@]3(C)[C@@H]([C@H](C)C[C@@H]4OC(=O)C(=C)[C@H]4CCC)CC[C@@H]23)C[C@@H](O)[C@H](C)[C@@H]1O`, 2030%; for `C=C1/C(=C\C=C2/CCC[C@]3(C)[C@@H]([C@H](C)C[C@H]4OC(=O)C(=C)[C@@H]4CC(C)C)CC[C@@H]23)C[C@@H](O)[C@H](C)[C@@H]1O`, 4%.
In turn, `C=C1/C(=C\C=C2/CCC[C@]3(C)[C@@H]([C@H](C)C[C@H]4OC(=O)C(=C)[C@H]4CC)CC[C@@H]23)C[C@@H](O)[C@H](OCCCO)[C@@H]1O` yielded an Activity of 27%.
The value for `C=C1/C(=C\C=C2/CCC[C@]3(C)[C@@H]([C@H](C)C[C@H]4OC(=O)C(=C)[C@@H]4CC(C)C)CC[C@@H]23)C[C@@H](O)[C@H](CCCO)[C@@H]1O` was 32%.
The compound `C=C1C[C@@H](C[C@@H](C)[C@H]2CC[C@H]3/C(=C/C=C4/C[C@@H](O)C[C@H](O)C4=C)CCC[C@]23C)OC1=O` gave an Activity of 7%.
The compound `C=C1C(=O)O[C@H](C[C@@H](C)[C@H]2CC[C@H]3/C(=C/C=C4/C[C@@H](O)C[C@H](O)C4=C)CCC[C@]23C)[C@@H]1CC(C)C` registered an Activity of 9%.
The compound `C=C1/C(=C\C=C2/CCC[C@]3(C)[C@@H]([C@H](C)C[C@@H]4OC(=O)C(=C)[C@H]4CC)CC[C@@H]23)C[C@@H](O)[C@H](C)[C@@H]1O` registered an Activity of 248%.
As for `C=C1/C(=C\C=C2/CCC[C@]3(C)[C@@H]([C@H](C)C[C@@H]4OC(=O)C(=C)[C@@H]4C)CC[C@@H]23)C[C@@H](O)[C@H](OCCCO)[C@@H]1O`, the Activity came out at 1970%.
`C=C1/C(=C\C=C2/CCC[C@]3(C)[C@@H]([C@H](C)C[C@@H]4OC(=O)C(=C)[C@H]4CC(C)C)CC[C@@H]23)C[C@@H](O)[C@H](CCCO)[C@@H]1O` showed an Activity of 388%.
`C=C1/C(=C\C=C2/CCC[C@]3(C)[C@@H]([C@H](C)C[C@@H]4OC(=O)C(=C)[C@@H]4CC)CC[C@@H]23)C[C@@H](O)C[C@@H]1O` showed an Activity of 345%.
For the compound `C=C1/C(=C\C=C2/CCC[C@]3(C)[C@@H]([C@H](C)C[C@H]4OC(=O)C(=C)[C@H]4CC(C)C)CC[C@@H]23)C[C@@H](O)[C@H](CCCO)[C@@H]1O`, the Activity is 31%.

(Values after ChEMBL document CHEMBL1137357, “Further synthetic and biological studies on vitamin D hormone antagonists based on C24-alkylation and C2alpha-functionalization of 25-dehydro-1alpha-hydroxyvitamin D(3)-26,23-lactones” (J Med Chem, 2006).)
